Laboratory results published in patent US20030203908A1, “Dihydrofolate reductase inhibitors” (priority 2000, published 2003).
Values after ≈ are worked out from the molar mass of the structure shown. Like-named read-outs stand apart in the source and are kept apart here.

Legend:
[1] = target: T1, A16V.S108T mutant (mut) of DHFR from Plasmodium falciparum (Plasmodium falciparum, UniProt A7UD81, A16V/S108T); assay: biochemical
T1 construct: The Dihydrofolate Reductase Domain of Plasmodium falciparum Thymidylate Synthase-Dihydrofolate Reductase; made in house
Protocol: (§2) For determination of the Ki values of a number of synthesized analogues, the assay reactions were initiated with affinity-purified enzyme (^˜0.005-0.01 U ml^−1), and the initial velocities in the presence of varying concentrations of inhibitors were analysed by non-linear least square fit using Kaleidagraph™ software.

[2] = test system: A16V.S108T mutant (mut) of DHFR from Plasmodium falciparum; assay: biochemical; conditions: resistance factor
Protocol: as §2

[3] = test system: wild-type (TM4/8.2) strain of P. falciparum; assay: microbe, parasite or virus in culture; format: cell-based, Plasmodium falciparum
Protocol: (§1) Mol. Biochem. Parasitol. […] Science, 1976, 193, 673-675]. In vitro antimalarial activity was determined by using [^3H]-hypoxanthine incorporation method [Desjardins, R. E.; Canfield, C. J.; Haynes, J. D.; Chulay, J. D. Quantitative assessment of antimalarial activity in vitro by a semiautomated microdilution technique. Antimicrob Agents Chemother. 1979, 16, 710-718]. The drugs were initially dissolved in DMSO and diluted with the culture media. Aliquots (25 μl) of drug solution of different concentrations was placed in 96-well plate together with 200 μl of 1.5% cell suspension of parasitized erythrocytes containing 1-2% parasitemia. Final concentration of DMSO was 0.1% where there was no effect on the parasite growth. The mixtures were incubated in a 3% CO2 incubator at 37° C. After 24 h of incubation, 25 μl (0.25 μCi) of [^3H]-hypoxanthine were added to each well. The mixtures were further incubated under the same condition for 18-24 h. DNA of parasites was harvested onto glass filter paper (Unifilter, Packard, USA). The filters were dried and liquid scintillation fluid was added for radioactivity measurement in a 6-probe liquid scintillation-counter (Packard, USA).

[4] = target: T2, wild-type (wt) DHFR from Plasmodium falciparum (Plasmodium falciparum, UniProt P13922, N108S/R59C); assay: Inhibition of wild-type pfDHFR (spectrophotometric, Ki); format: biochemical;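 further: Affinity-purified enzyme, initial reaction rates measured across a range of inhibitor concentrations, Ki obtained by nonlinear least-squares fitting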
T2 construct: The Dihydrofolate Reductase Domain of Plasmodium falciparum Thymidylate Synthase-Dihydrofolate Reductase; made in house
Protocol: as §2

[5] = test system: resistant T9/94 strain of P. falciparum (A16V.S108T pfDHFR); assay: In vitro antimalarial activity, [3H]-hypoxanthine incorporation, T9/94; format: cell-based, Plasmodium falciparum; conditions: resistant strain T9/94
Protocol: as §1

[6] = target: T3, DHFR-TS from Trypanosoma cruzi (Trypanosoma cruzi, UniProt Q27793); assay: Inhibition of T. cruzi DHFR-TS (I50-derived Ki);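 on all read-outs here: enzymes were recombinant T. cruzi DHFR-TS and human DHFR, both expressed in E. coli and purified on a methotrexate affinity column, with dihydrofolate and NADPH as substrates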; format: biochemical; conditions: for Selectivity: human Ki / T. cruzi Ki
T3 construct: pET 11c with the insertion of the complete ORF of the gene tc-dhfrts; made in house; host or cells: E. coli BL21 (DE3)
Protocol: DHFR activity was measured spectrophotometrically by monitoring the decrease in absorbance at 340 mm.
Inhibition of dihydrofolate reductases by 1,2-dihydro-1,3,5 triazines was analysed with T. cruzi and human DHFR.
DHFR assays contained 30 mM dihydrofolate, 0.1 mM NADPH, 50 mM TES buffer pH 7, 75 mM 2-mercaptoethanol and specified amounts of inhibitors. The reaction was initiated by addition of 2.8 or 2.3 units of T. cruzi and human, respectively, and monitored at 340 nm.
Selective inhibition of dihydrofolate reductase by 1,2-dihydro-1,3,5-triazines was analysed with T. cruzi and human DHFR. DHFR assays contained 30 μM dihydrofolate, 0.1 mM NADPH, 50 mM TES buffer pH 7, 75 mM β-mercaptoethanol and specified amounts of inhibitors. The reaction was initiated by addition of 2.8 or 2.3 units of T. cruzi and human enzyme, respectively, and monitored at 340 nm.
KiI 50=[I]0.5/((1+[S])/Km)

human DHFR [7] = target: T4, human DHFR (Homo sapiens, UniProt P00374); assay: Inhibition of human DHFR (I50-derived Ki); format: biochemical;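 further: recombinant human DHFR expressed in E. coli and purified by methotrexate affinity chromatography, enzyme activity followed spectrophotometrically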
T4 construct: made in house; host or cells: E. coli M15
T4 sequence (P00374 1-187): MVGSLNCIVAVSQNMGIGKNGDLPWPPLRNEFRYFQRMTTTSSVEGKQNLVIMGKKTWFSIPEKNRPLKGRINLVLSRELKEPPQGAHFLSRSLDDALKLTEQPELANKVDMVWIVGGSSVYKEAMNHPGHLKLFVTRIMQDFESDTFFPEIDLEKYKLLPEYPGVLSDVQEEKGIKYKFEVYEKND

human DHFR [8] = assay: Inhibition of human DHFR (I50-derived Ki); format: biochemical;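 further: recombinant human DHFR expressed in E. coli and purified by methotrexate affinity chromatography, enzyme activity followed spectrophotometrically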
[9] = test system: P. falciparum FCR3 (resistant strain containing the A16V.S108T DHFR mutant); assay: In vitro inhibition of P. falciparum FCR3; format: cell-based, Plasmodium falciparum; conditions: Plasmodium falciparum; in vitro, FCR3 strain; read-out: Pf-FCR3 ED50
[10] = test system: P. falciparum 3D7 (wild-type strain); assay: In vitro inhibition of P. falciparum 3D7; format: cell-based, Plasmodium falciparum; conditions: Plasmodium falciparum, 3D7 strain, read-out: Pf-3D7 ED50
[11] = A16V.S108T mutant pfDHFR, read-out: Ki(mut)
[12] = Plasmodium falciparum, wild-type strain TM4/8.2
[13] = T. cruzi DHFR-TS, read-out: T. cruzi Ki (I50)

T3 sequence (Q27793 whole entry): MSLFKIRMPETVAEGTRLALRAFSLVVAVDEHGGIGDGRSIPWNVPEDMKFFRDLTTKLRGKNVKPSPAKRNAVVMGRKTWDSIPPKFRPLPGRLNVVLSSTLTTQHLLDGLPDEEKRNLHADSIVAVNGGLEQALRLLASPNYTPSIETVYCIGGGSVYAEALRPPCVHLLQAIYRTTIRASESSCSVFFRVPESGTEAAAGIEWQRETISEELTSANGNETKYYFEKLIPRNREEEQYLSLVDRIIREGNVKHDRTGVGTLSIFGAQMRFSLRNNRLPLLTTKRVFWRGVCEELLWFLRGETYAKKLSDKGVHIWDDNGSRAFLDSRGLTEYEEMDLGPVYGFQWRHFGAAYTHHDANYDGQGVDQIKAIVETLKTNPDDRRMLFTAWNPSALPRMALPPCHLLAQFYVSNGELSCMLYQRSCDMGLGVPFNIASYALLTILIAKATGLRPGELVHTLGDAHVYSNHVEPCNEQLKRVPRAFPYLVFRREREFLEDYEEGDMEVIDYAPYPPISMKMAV
T2 sequence (P13922 10-228 R59C/N108S): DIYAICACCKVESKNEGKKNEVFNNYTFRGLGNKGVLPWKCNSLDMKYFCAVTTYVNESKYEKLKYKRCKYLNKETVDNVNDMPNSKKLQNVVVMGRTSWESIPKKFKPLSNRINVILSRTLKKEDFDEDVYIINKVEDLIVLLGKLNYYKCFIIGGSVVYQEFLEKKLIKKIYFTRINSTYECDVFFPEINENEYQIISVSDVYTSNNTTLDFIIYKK
T1 sequence (A7UD81 1-231 A16V/S108T): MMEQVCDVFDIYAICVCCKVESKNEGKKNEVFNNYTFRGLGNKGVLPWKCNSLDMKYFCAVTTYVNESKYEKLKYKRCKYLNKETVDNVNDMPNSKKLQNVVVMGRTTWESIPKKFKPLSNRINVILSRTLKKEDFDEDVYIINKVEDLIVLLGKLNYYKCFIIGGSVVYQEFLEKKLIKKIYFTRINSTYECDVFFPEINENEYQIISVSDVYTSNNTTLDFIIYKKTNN

Row | Compound | Ki [1, 11] | Ki(mut)/Ki(wt) [2] | IC50 ([3]; wild-type strain TM4/8.2) | Ki ([4]; read-out: Ki(wt)) | IC50 [5] | Ki [6] | Selectivity [6] | Ki [1] | IC50 [3, 12] | Ki ([4]; Ki(wt) nM) | Ki (human DHFR [7]; Human Ki (I50)(nM), human DHFR) | Ki (human)/Ki (P. falc. mut) (human DHFR [8]) | Ki (human)/Ki (P. falc. wt) (human DHFR [8]) | Ki (human)/Ki (T. cruzi) (human DHFR [8]) | IC50 [9] | IC50 [10] | Ki [6, 13] | Ki (human DHFR [7]; read-out: Human Ki (I50)) | IC50 [3] | Ki (human DHFR [7]; Human Ki (I50)(nM))
1 | CCCOc1ccc(C2N=C(N)N=C(N)N2OCCCOc2cc(Cl)c(Cl)cc2Cl)cc1 (centres unmarked) [1-[3′-(2,4,5-trichlorophenoxy)-n-propyloxy]-2-p-n-propyloxyphenyl-4,6-diamino-1,2-dihydro-1,3,5-triazine] | 6.1 ± 0.7 nM | 3.6 | 948 nM | 1.7 ± 0.3 nM | 29 nM |  |  |  |  |  |  |  |  |  |  |  |  |  |  | 
2 | CCCCOc1ccc(C2N=C(N)N=C(N)N2c2ccc(Cl)cc2)cc1 (centres unmarked) [(Ia) R2=p-butyloxyphenyl, 1-p-chlorophenyl-2-p-n-butyloxyphenyl-4,6-diamino-1,2-dihydro-1,3,5-triazine] |  | 5.0 |  |  |  | 26 nM | 15 | 5 nM | 287 nM | 1 ± 0.1 nM | 400 nM | 80 | 400 | 15.3 | 0.091 µg/mL (≈ 0.245 µM) | 0.14 µg/mL (≈ 0.376 µM) |  |  |  | 
3 | NC1=NC(c2cccc(Oc3ccccc3)c2)N(c2cccc(/C=C/c3ccc(Cl)cc3Cl)c2)C(N)=N1 (centres unmarked) [(Id2) R2=3-phenoxyphenyl] | 10.8 ± 1.2 nM | 1.7 | 4110 nM | 6.5 ± 0.5 nM | 4320 nM |  |  |  |  |  |  |  |  |  |  |  |  |  |  | 
4 | CCCOc1cccc(C2N=C(N)N=C(N)N2c2cccc(/C=C/c3ccc(Cl)cc3Cl)c2)c1 (centres unmarked) [(Id2) R2=3-propyloxyphenyl] | 19.2 ± 2.7 nM | 14.8 | 25400 nM | 1.3 ± 0.3 nM | 5410 nM |  |  |  |  |  |  |  |  |  |  |  |  |  |  | 
5 | NC1=NC(c2cccc(OCc3ccccc3)c2)N(c2cccc(COc3cc(Cl)c(Cl)cc3Cl)c2)C(N)=N1 (centres unmarked) [(Id1) R2=3-benzyloxyphenyl] | 11.7 ± 3.2 nM | 1.1 | 14000 nM | 10.3 ± 2.6 nM | 1730 nM |  | 0.73 |  |  |  |  | 1.9 | 2.1 | 0.7 |  |  | 30 nM | 22 nM |  | 
6 | CCCCOc1ccc(C2N=C(N)N=C(N)N2OCCCOc2cc(Cl)c(Cl)cc2Cl)cc1 (centres unmarked) [1-[3′-(2,4,5-trichlorophenoxy)-n-propyloxy]-2-p-n-butyloxyphenyl-4,6-diamino-1,2-dihydro-1,3,5-triazine] | 8.2 ± 0.8 nM | 2.6 | 1490 nM | 3.2 ± 0.4 nM | 41 nM |  |  |  |  |  |  |  |  |  |  |  |  |  |  | 
7 | NC1=NC(c2cccc(OCc3ccccc3)c2)N(c2ccc(OCc3ccccc3)cc2)C(N)=N1 (centres unmarked) [R2=3-BnOC6H4, X=BnO, Y=H, 1-p-benzyloxyphenyl-2-m-benzyloxyphenyl-4,6-diamino-1,2-dihydro-1,3,5-triazine] | 5.7 ± 0.6 nM | 4.4 |  | 1.3 ± 0.2 nM | 255 nM |  | 8.0 |  |  |  |  | 56 | 245 | 8.0 |  |  | 40 nM | 319 nM | 3450 nM | 
8 | Cl.NC1=NCN(c2ccc(Cl)cc2)C(N)=N1 [(Ia) R2=H, 1-(4′-Chlorophenyl)-4,6-diamino-1,2-dihydro-1,3,5-triazine hydrochloride] |  | 26 |  |  |  | 16 nM | 76 | 649 ± 77 nM | 952 nM | 24.4 ± 4.3 nM |  | 1.9 | 49.7 | 75.7 | 0.13 µg/mL | 0.04 µg/mL |  |  |  | 1210 nM
9 | CC(C)(C)c1ccc(Oc2cccc(C3N=C(N)N=C(N)N3c3cccc(Cl)c3)c2)cc1 (centres unmarked) [(Ib) R2=3-(4-t-butylphenoxy)phenyl] |  | 0.7 |  |  |  |  |  | 5.6 ± 0.9 nM | 5040 nM | 7.7 ± 0.5 nM |  |  |  |  | 0.47 µg/mL (≈ 1.05 µM) | > 0.3 µg/mL |  |  |  | 
10 | NC1=NC(c2cccc(OCc3ccccc3)c2)N(c2cccc(Cl)c2)C(N)=N1 (centres unmarked) [(Ib) R2=3-benzyloxyphenyl] |  | 1.4 |  |  |  | 12 nM | 3.8 | 3.2 ± 0.2 nM | 3970 nM | 2.3 ± 0.5 nM | 46 nM |  |  |  | 0.019 µg/mL (≈ 0.0468 µM) | 0.45 µg/mL (≈ 1.11 µM) |  |  |  | 
11 | NC1=NC(c2ccc(Oc3ccccc3)cc2)N(c2ccc(Cl)cc2)C(N)=N1 (centres unmarked) [(Ia) R2=p-phenoxyphenyl, 1-p-chlorophenyl-2-p-phenoxyphenyl-4,6-diamino-1,2-dihydro-1,3,5-triazine] |  | 9.5 |  |  |  | 3 nM | 376 | 3.8 nM | 121 nM | 0.4 nM | 1130 nM |  |  |  | 0.2 µg/mL (≈ 0.51 µM) | 0.07 µg/mL (≈ 0.179 µM) |  |  |  | 
12 | NC1=NC(c2cccc(Oc3ccccc3)c2)N(c2ccc(Cl)cc2)C(N)=N1 (centres unmarked) [(Ia) R2=m-phenoxyphenyl, 1-p-chlorophenyl-2-m-phenoxyphenyl-4,6-diamino-1,2-dihydro-1,3,5-triazine] |  | 5.4 |  |  |  | 21 nM | 9 | 2.7 nM | 367 nM | 0.5 nM | 190 nM |  |  |  | 0.32 µg/mL (≈ 0.817 µM) | 0.28 µg/mL (≈ 0.715 µM) |  |  |  | 
13 | NC1=NC(c2cccc(Oc3ccc(Cl)cc3)c2)N(c2cccc(/C=C/c3ccc(Cl)cc3Cl)c2)C(N)=N1 (centres unmarked) [(Id2) R2=3-(4-chlorophenoxy)phenyl] | 210 ± 18 nM | 0.9 | > 10000 nM | 219 ± 11 nM | > 10000 nM |  |  |  |  |  |  |  |  |  |  |  |  |  |  | 
14 | COc1ccc(Oc2cccc(C3N=C(N)N=C(N)N3c3ccc(Cl)cc3)c2)cc1 (centres unmarked) [(Ia) R2=3-(4-methoxyphenoxyl)phenyl] |  | 9.4 |  |  |  | 48 nM | 17 | 6.6 nM | 2880 nM | 0.7 nM | 830 nM |  |  |  | 1.25 µg/mL (≈ 2.96 µM) | 5.19 µg/mL (≈ 12.3 µM) |  |  |  | 
15 | CC(C)(C)c1ccc(Oc2cccc(C3N=C(N)N=C(N)N3c3ccc(Cl)cc3)c2)cc1 (centres unmarked) [(Ia) R2=3-(4-t-butylphenoxy)phenyl] |  | 5.8 |  |  |  | 112 nM | 7 | 9.9 ± 1.5 nM | 4120 nM | 1.7 nM | 770 nM |  |  |  | 0.26 µg/mL (≈ 0.58 µM) | 0.75 µg/mL (≈ 1.67 µM) |  |  |  | 
